Laboratory results: patent US12643892B2, “Pyridazinone compounds for the treatment of neuromuscular diseases” (Edgewise Therapeutics, Inc., priority 2020, dated 2026)

Each compound was assayed against Skeletal Myofibril ATPase (Rabbit Psoas myofibrils) (assay: Skeletal Myofibril ATPase Assay). Conditions: PK/LDH-coupled NADH absorbance at 340 nm.
Type: biochemical
Procedure: Overview: Myosin ATPase activity was assessed by using a coupled reaction system, in which ADP generated by the myosin ATPase function was coupled to the disappearance of NADH through the pyruvate kinase/lactate dehydrogenase (PK-LDH) system. Myosin ATPase activity produces ADP, which was used as a substrate for PK to produce pyruvate and regenerate ATP. The pyruvate was then used as a substrate by LDH to oxidize NADH to NAD+. The rate of the reaction was monitored through the time-dependent disappearance of NADH using absorbance at 340 nm. Inhibition of ATPase activity by the assayed compounds was indicated by a reduced rate of NADH loss, relative to vehicle-treated controls, over the experimental time window. To assess the selectivity of the assayed compounds for skeletal myofibrils, the compounds were counter-screened in cardiac myofibrils.
Materials: The following stock solutions and reagents were used in the Skeletal Myofibril ATPase Assay:
Stock Solutions of pCa buffer. Combine PIPES, CaCl2, and EGTA solutions with 70 mL of water. Adjust pH to 7.0 and bring final volume to 100 mL.
Buffer A & Buffer B. Buffers were stored on ice until use.
Skeletal Myofibril ATPase Assay Procedure: BSA, ATP, NADH, PEP, and DTT solutions were thawed at room temperature, then transferred to ice. Pellet-frozen myofibrils (approximately twice the required volume) were transferred into a sufficiently large tube and capped. Myofibrils were thawed by rolling in a water bath for approximately 15 min at room temperature and cooled on ice. Buffers A and B were prepared by adjusting volumes as necessary for required number of wells and stored on ice. 0.5 μL of the compounds to be assayed were added into wells of a 384-well plate. Buffers A and B were mixed by inversion immediately prior to use, then 25 μL of each was dispensed using a Multidrop dispenser (Buffer A first, then Buffer B). The absorbance within the wells was measured at 340 nm, using a kinetic protocol in which the wells are read every 1.5-2 min for 1 h. The reaction rate was qualitatively assessed by subtracting the minimum absorbance value from the maximum value for each well, using either the SoftMax Pro plate reader software or a spreadsheet program such as Excel. Using GraphPad Prism 8.0, the data was normalized, with 100% activity defined as the absorbance change in the 1% DMSO vehicle wells and 0% assigned to no change in absorbance over the course of the experiment. The normalized data were fit to a variable-slope four-parameter logistic model, constraining the bottom to be 0 or greater. Compounds of Table 1 to 3 were tested and results of the assay appear in Table 4 herein. A=IC50 is less than or equal to 10 μM; B=IC50 is greater than 10 μM and less than 100 μM; C=IC50 is greater than 100 μM.

SMILES	IC50 [µM]
O=c1ccc(-c2nc(-c3ccccc3)no2)cn1Cc1cccnc1 [Compound 107, 5-(3-phenyl-1,2,4-oxadiazol-5-yl)-1-(pyridin-3-ylmethyl)pyridin-2(1H)-one]	10 to 100
CCNC(=O)Cn1nc(-c2nc(-c3cccc(Cl)c3)cs2)ccc1=O [Compound 81, 2-(3-(4-(3-chlorophenyl)thiazol-2-yl)-6-oxopyridazin-1(6H)-yl)-N-ethylacetamide]	> 100
O=C(Cn1nc(-c2cccs2)ccc1=O)Nc1ccc2c(c1)OCCO2 [Compound 46, N-(2,3-dihydrobenzo[b][1,4]dioxin-6-yl)-2-(6-oxo-3-(thiophen-2-yl)pyridazin-1(6H)-yl)acetamide]	> 100
Cc1cccc(-c2noc(-c3ccc(=O)n(Cc4cccnc4C#N)c3)n2)c1 [Compound 112, 3-((2-oxo-5-(3-(m-tolyl)-1,2,4-oxadiazol-5-yl)pyridin-1(2H)-yl)methyl)picolinonitrile]	> 120
O=C(Cn1nc(-c2cccs2)ccc1=O)Nc1ccc2cc[nH]c2c1 [Compound 48, N-(1H-indol-6-yl)-2-(6-oxo-3-(thiophen-2-yl)pyridazin-1(6H)-yl)acetamide]	> 100
Cc1noc(-c2ccc(=O)n(Cc3ccccc3F)n2)n1 [Compound 70, 2-(2-fluorobenzyl)-6-(3-methyl-1,2,4-oxadiazol-5-yl)pyridazin-3(2H)-one]	10 to 100
O=c1ccc(-c2cccs2)nn1Cc1ccccc1F [Compound 58, 2-(2-fluorobenzyl)-6-(thiophen-2-yl)pyridazin-3(2H)-one]	> 100
CCNC(=O)Cn1nc(-c2nc(C3CC3)no2)ccc1=O [Compound 15, 2-(3-(3-cyclopropyl-1,2,4-oxadiazol-5-yl)-6-oxopyridazin-1(6H)-yl)-N-ethylacetamide]	10 to 100
Cc1cccc(-c2noc(-c3ccc(=O)n(Cc4ccc(C(F)(F)F)nc4)c3)n2)c1 [Compound 114, 5-(3-(m-tolyl)-1,2,4-oxadiazol-5-yl)-l-((6-(trifluoromethyl)pyridin-3-yl)methyl)pyridin-2(1H)-one]	> 120
COc1ncccc1Cn1cc(-c2nc(-c3cccc(C)c3)no2)ccc1=O [Compound 121, 1-((2-methoxypyridin-3-yl)methyl)-5-(3-(m-tolyl)-1,2,4-oxadiazol-5-yl)pyridin-2(1H)-one]	> 120
Cc1noc(-c2ccc(=O)n(Cc3cccc(F)c3)n2)n1 [Compound 72, 2-(3-fluorobenzyl)-6-(3-methyl-1,2,4-oxadiazol-5-yl)pyridazin-3(2H)-one]	10 to 100
Cc1ccc(-c2noc(-c3ccc(=O)n(Cc4cccc(F)c4)n3)n2)cc1 [Compound 71, 2-(3-fluorobenzyl)-6-(3-(p-tolyl)-1,2,4-oxadiazol-5-yl)pyridazin-3(2H)-one]	> 100
COCCn1nc(-c2nc(-c3ccc(F)c(F)c3)no2)ccc1=O [Compound 75, 6-(3-(3,4-difluorophenyl)-1,2,4-oxadiazol-5-yl)-2-(2-methoxyethyl)pyridazin-3(2H)-one]	10 to 100
O=c1ccc(-n2cncn2)nn1Cc1cccc(Cl)c1 [Compound 78, 2-(3-chlorobenzyl)-6-(1H-1,2,4-triazol-1-yl)pyridazin-3(2H)-one]	10 to 100
Cc1cccc(-c2noc(-c3ccc(=O)n(Cc4cccnc4)c3)n2)c1 [Compound 109, 1-(pyridin-3-ylmethyl)-5-(3-(m-tolyl)-1,2,4-oxadiazol-5-yl)pyridin-2(1H)-one]	10 to 100
O=C(Cn1nc(-c2nc(-c3cccc(Cl)c3)no2)ccc1=O)NC1CCC1 [Compound 5, 2-(3-(3-(3-chlorophenyl)-1,2,4-oxadiazol-5-yl)-6-oxopyridazin-1(6H)-yl)-N-cyclobutylacetamide]	≤ 10
O=C(Cn1nc(-c2cccs2)ccc1=O)Nc1ccccc1F [Compound 41, N-(2-fluorophenyl)-2-(6-oxo-3-(thiophen-2-yl)pyridazin-1(6H)-yl)acetamide]	10 to 100
O=c1ccc(-c2nc(-c3ccc(Cl)cc3)no2)cn1Cc1ccc(Cl)cc1 [Compound 122, 1-(4-chlorobenzyl)-5-(3-(4-chlorophenyl)-1,2,4-oxadiazol-5-yl)pyridin-2(1H)-one]	> 120

Other lines, results leading:

IC50 [µM]	SMILES
≤ 10	CCNC(=O)Cn1nc(-c2nnc(-c3cncc(C(F)(F)F)c3)s2)ccc1=O [Compound 19, N-ethyl-2-(6-oxo-3-(5-(5-(trifluoromethyl)pyridin-3-yl)-1,3,4-thiadiazol-2-yl)pyridazin-1(6H)-yl)acetamide]
≤ 10	O=C(Cn1nc(-c2nnc(-c3cc(Cl)ccc3Cl)s2)ccc1=O)NC1CCC1 [Compound 18, N-cyclobutyl-2-(3-(5-(2,5-dichlorophenyl)-1,3,4-thiadiazol-2-yl)-6-oxopyridazin-1(6H)-yl)acetamide]
≤ 10	CCNC(=O)Cn1nc(-c2nc(-c3cccc(Cl)c3)no2)ccc1=O [Compound 14, 2-(3-(3-(3-chlorophenyl)-1,2,4-oxadiazol-5-yl)-6-oxopyridazin-1(6H)-yl)-N-ethylacetamide]
≤ 10	O=c1ccc(-c2nnc(-c3cccc(Cl)c3)o2)nn1Cc1ccccc1 [Compound 73, 2-benzyl-6-(5-(3-chlorophenyl)-1,3,4-oxadiazol-2-yl)pyridazin-3(2H)-one]
≤ 10	Cc1cccc(-c2noc(-c3ccc(=O)n(Cc4cncc(C#N)c4)c3)n2)c1 [Compound 98, 5-((2-oxo-5-(3-(m-tolyl)-1,2,4-oxadiazol-5-yl)pyridin-1(2H)-yl)methyl)nicotinoni trile]
≤ 10	CCNC(=O)Cn1nc(-c2nc(-c3cccc(OC(F)F)c3)no2)ccc1=O [Compound 7, 2-(3-(3-(3-(difluoromethoxy)phenyl)-1,2,4-oxadiazol-5-yl)-6-oxopyridazin-1(6H)-yl)-N-ethylacetamide]
≤ 10	O=c1ccc(-c2cccs2)nn1Cc1cccc(Cl)c1 [Compound 56, 2-(3-chlorobenzyl)-6-(thiophen-2-yl)pyridazin-3(2H)-one]
≤ 10	CCC(C)(C)NC(=O)Cn1nc(-c2ccc(C)s2)ccc1=O [Compound 82, 2-(3-(5-methylthiophen-2-yl)-6-oxopyridazin-1(6H)-yl)-N-(tert-pentyl)acetamide]
≤ 10	CCNC(=O)Cn1nc(-c2nc(-c3cccc(OC)c3)no2)ccc1=O [Compound 4, N-ethyl-2-(3-(3-(3-methoxyphenyl)-1,2,4-oxadiazol-5-yl)-6-oxopyridazin-1(6H)-yl)acetamide]
≤ 10	Cc1cccc(-c2noc(-c3ccc(=O)n(Cc4ccc(OC(F)F)nc4)c3)n2)c1 [Compound 93, 1-((6-(difluoromethoxy)pyridin-3-yl)methyl)-5-(3-(m-tolyl)-1,2,4-oxadiazol-5-yl)pyridin-2(1H)-one]
≤ 10	O=c1ccc(-c2nc(-c3ccc(F)c(F)c3)no2)cn1Cc1cccnc1 [Compound 97, 5-(3-(3,4-difluorophenyl)-1,2,4-oxadiazol-5-yl)-1-(pyridin-3-ylmethyl)pyridin-2(1H)-one]
≤ 10	CCCNC(=O)Cn1nc(-c2nc(-c3ccc(Cl)cc3)no2)ccc1=O [Compound 51, 2-(3-(3-(4-chlorophenyl)-1,2,4-oxadiazol-5-yl)-6-oxopyridazin-1(6H)-yl)-N-propylacetamide]
≤ 10	Cc1cnc(-c2ccc(=O)n(CC(=O)NCc3ccccc3Cl)n2)s1 [Compound 26, N-(2-chlorobenzyl)-2-(3-(5-methylthiazol-2-yl)-6-oxopyridazin-1(6H)-yl)acetamide]
≤ 10	Cc1cccc(-c2noc(-c3ccc(=O)n(Cc4ccc(C#N)nc4)c3)n2)c1 [Compound 103, 5-((2-oxo-5-(3-(m-tolyl)-1,2,4-oxadiazol-5-yl)pyridin-1(2H)-yl)methyl)picolinonitrile]
≤ 10	O=c1ccc(-c2nc(-c3cccc(Cl)c3)no2)cn1Cc1cccnc1 [Compound 91, 5-(3-(3-chlorophenyl)-1,2,4-oxadiazol-5-yl)-1-(pyridin-3-ylmethyl)pyndin-2(1H)-one]
≤ 10	Cc1cccc(-c2noc(-c3ccc(=O)n(Cc4cncnc4)c3)n2)c1 [Compound 105, 1-(pyrimidin-5-ylmethyl)-5-(3-(m-tolyl)-1,2,4-oxadiazol-5-yl)pyridin-2(1H)-one]
≤ 10	Cc1cc(Cn2nc(-c3nc(-c4cccc(Cl)c4)no3)ccc2=O)on1 [Compound 63, 6-(3-(3-chlorophenyl)-1,2,4-oxadiazol-5-yl)-2-((3-methylisoxazol-5-yl)methyl)pyridazin-3(2H)-one]
